In patent publication US8609858B2, “Spiro derivatives of parthenin as novel anticancer agents” (Council of Scientific & Industrial Research, priority 2008, dated 2013):
“Also recorded” adds a separate entry of the source.

Legend:
[1] = system: Ehrlich Ascites Tumor (EAT); assay: Anti tumor activity on solid Ehrlich Ascites Tumor (EAT) bearing mice; format: in vivo; conditions: for % Tumor growth inhibition / Tumor Weight (mg) Mean ± SE: day 13; for mortality of test animals: EAT bearing mice
Description: (§1) Non-inbred swiss albino mice from an in-house colony were used in the present study. The breeding and experimental animals were housed in standard size polycarbonate cages providing internationally recommended space for each animal. Animals were fed balanced mice feed supplied by MIs Ashirwad Industries, Chandigarh (India) and autoclaved water was available ad libitum. Animals were cared as per the guide for the care and use of laboratory animals (1996), ILAR, Washington D.C. They were housed in controlled conditions of temperature (23±2° C.), humidity (50-60%) and 12:12 hrs of light: dark cycle. The study and the number of animals used were approved by the institutional animal ethics committee, IIIM, Jammu, India. The study was conducted as per the protocols of National Cancer Institute (NCl), USA (Geran et al., 1972).
Parthenin and its derivative Compound-17 were evaluated against solid Ehrlich Ascites Tumor (EAT) models at different doses. A standard procedure for experiment was as followed:
Animals of the same sex weighing 20±3 g were injected 1×10^7 cells collected from the peritoneal cavity of non-inbred swiss mice, bearing 8-10 days old tumor cells, into the right thigh, intramuscularly (on Day 1). On next day animals were randomized and divided into test groups (7 animals in each test group) and one tumor control group (10 animals). Test groups were treated with different doses of Parthenin (10 mg/kg, 25 mg/kg and 50 mg/kg) and its derivative Compound-17 (10 mg/kg, 25 mg/kg and 50 mg/kg, 100 mg/kg and 200 mg/kg) suspension in 1% gum acacia in, their respective group intraperitonealy for nine consecutive days. Another test group was administered 5-FU @ 22 mg/kg i.p and served as positive control. The tumor contra group was similarly administered normal saline (0.2 ml i.p). The percent tumor growth-inhibition was measured on day 13 with respect to their tumor weight (Geran et al., 1972): Shortest and longest diameters of the tumor mass were measured with the help of vernier caliper and tumor weight (mg) was calculated by using following formula Tumor weight (mg)=Length (mm)×(Width (mm)^2/2 The average tumor weight for each group was calculated and the percent tumor growth inhibition in treated groups was calculated as follows: % Tumor Growth Inhibition=100×(Average tumor weight of control group−Average tumor weight of test group)/Average tumor weight of control group Anti Tumor Activity of Parthenin and its Derivative Compound-17 on Ehrlich Ascites Carcinoma (EAC)

[2] = system: Ehrlich Ascites Carcinoma (EAC); assay: Anti tumor activity on Ehrlich Ascites Carcinoma (EAC) bearing mice; format: in vivo; conditions: for % Tumor growth inhibition / Ascitic fluid volume (ml) Mean ± SE / Tumor cells in ascitic fluid (×10^7) Mean ± SE: day 12; for mortality of test animals: EAC bearing mice
Description: as §1
Ehrlich Ascites Carcinoma (EAC) was propagated by transplanting 1×10^7 cells from an animal bearing 8-10 days old Ehrlich Ascites Carcinoma, into the peritoneal cavity of non-inbreed swiss mice. For testing, mice of the same sex weighing 20 ±3 g bearing ascites tumor were selected. 1×10^7 cells obtained from an animal bearing 8-10 days old ascites tumor were injected into peritoneal cavity of all animals used for testing (0 Day). On next day animals were randomized and divided into test groups (7 animals in each test group) and one tumor control group (10 animals). Test groups were treated with different doses of Parthenin (10 mg/kg, 25 mg/kg and 50 mg/kg) and its derivative Compound-17 (10 mg/kg, 25 mg/kg and 50 mg/kg, 100 mg/kg and 200 mg/kg) suspension in 1% gum acacia in their respective group intraperitonealy for nine consecutive days. Another test group was administered 5 FU @ 20 mg/kg i.p and served as positive control. The tumor control group was similarly administered normal saline (0.2 ml i.p). The percent tumor growth inhibition were measured on day 12 with respect to volume of ascitic fluid and the number of tumor cells in the ascitic fluid of peritoneal cavity (Geran et al., 1972; Singh et al., 2007).
The percent tumor growth inhibition was calculated as follow. % growth inhibition=100×(Average no. of cells in control group−Average no. of cells in test group)/Average no. of cells in control group Results: […]

[3] = system: SW-620; assay: In vitro cytotoxicity screening (sulphodamine B dye), SW-620; format: cell-based; conditions: Homo sapiens; SW-620 colon cancer cell line
Experimental: (§2) Cells at sub confluent stage were harvested from the flask by treatment with trypsin (0.5% in PBS containing 0.02% EDTA) for determination of cytotoxicity. […] The cell suspensions of required cell density were prepared in complete growth medium with gentamycin (50 μg/ml) for determination of cytotoxicity. The cells (100 μl/well) were inoculated in 96 well tissue culture plates. The cells were allowed to grow for 24 hrs temperature of 37° C. and in a humidified atmosphere of 5% CO2 in air. Stock solution of (20 mM) of test material was prepared in DMSO. The stock solution was serially diluted with complete growth medium containing 50 μg/ml of gentamycin to obtain […] working test solutions of 1., 2, 5, 10, 50 and 100 μM.
(§3) The media were supplemented with FCS (10%), penicillin (100 Units/ml), streptomycin (100 μg/ml) and glutamine (2 mM) and cells were grown in CO2 incubator (Hera cell, Heraeus, USA) at 37° C. with 90% humidity and 5% CO2.

[4] = system: DU-145; assay: In vitro cytotoxicity screening (sulphodamine B dye), DU-145; format: cell-based; conditions: Homo sapiens; DU-145 prostate cancer cell line
Experimental: as §2, §3

[5] = system: PC-3; assay: In vitro cytotoxicity screening (sulphodamine B dye), PC-3; format: cell-based; conditions: Homo sapiens; PC-3 prostate cancer cell line
Experimental: as §2, §3

SMILES	IC50 [3]	IC50 [4]	IC50 [5]	melting point	further results
O=c1[nH]cc(F)c(=O)[nH]1 [Compound 5-FU, 5-Fluorouracil, reference compound]	–	–	–	–	% Tumor growth inhibition ([1]; 22 mg/kg i.p.): 51.28%; Tumor Weight (mg) Mean ± SE ([1]; 22 mg/kg i.p.): 832.28 ± 35.21 mg; % Tumor growth inhibition ([2]; 20 mg/kg i.p.): 100%; Ascitic fluid volume (ml) Mean ± SE ([2]; 20 mg/kg i.p.): 0 mL; Tumor cells in ascitic fluid (×10^7) Mean ± SE ([2]; 20 mg/kg i.p.): 0 ×10^7
COc1ccccc1C1CC2(ON1c1ccccc1)C(=O)O[C@@H]1[C@H]2CC[C@H](C)[C@]2(O)C=CC(=O)[C@@]12C (some centres unmarked) [Compound -33]	53 µM	91 µM	81 µM	111 °C	–
C[C@H]1CC[C@@H]2[C@@H](OC(=O)C23CN3c2ccccc2)[C@]2(C)C(=O)C=C[C@@]12O (some centres unmarked) [Compound -34]	87.7 µM	31.4 µM	10.6 µM	245 to 247 °C	–
C[C@H]1CC[C@@H]2[C@@H](OC(=O)C23CN3c2ccccc2[N+](=O)[O-])[C@]2(C)C(=O)C=C[C@]12O (some centres unmarked) [Compound -39]	33 µM	28 µM	10 µM	222 to 224 °C	–
C=C1C(=O)O[C@@H]2[C@H]1CC[C@H](C)[C@]1(O)C=CC(=O)[C@@]21C [Parthenin]	38.7 µM	31.1 µM	40.3 µM	–	% Tumor growth inhibition ([1]; 10 mg/kg i.p., nine days): 9.69%; Tumor Weight (mg) Mean ± SE ([1]; 10 mg/kg i.p., nine days): 1542.86 ± 35.24 mg; mortality of test animals ([1]; 25 mg/kg i.p.): mortality of all the animals; also recorded: All animals died by 4th day; mortality of test animals ([1]; 50 mg/kg i.p.): mortality of all the animals; also recorded: All animals died by 2nd day; % Tumor growth inhibition ([2]; 10 mg/kg i.p., nine days): 12.01%; Ascitic fluid volume (ml) Mean ± SE ([2]; 10 mg/kg i.p., nine days): 3.92 ± 0.38 mL; Tumor cells in ascitic fluid (×10^7) Mean ± SE ([2]; 10 mg/kg i.p., nine days): 74.71 ± 2.77 ×10^7; mortality of test animals ([2]; 25 mg/kg i.p.): mortality of all the test animals; also recorded: All animals died by 4th day; mortality of test animals ([2]; 50 mg/kg i.p.): mortality of all the test animals; also recorded: All animals died by 2nd day
